From patent publication US20030215462A1, “Use of UGT inhibitors to increase bioavailability” (priority 2001, published 2003)
Where “and” joins values, the source holds several entries; their conditions need not be identical. Equal values may be shown once. Read-outs that look alike come from different tables or passages of the source.

Legend:
[1] = test system: UGT enzymes of human liver microsomes; test: Inhibition of raloxifene glucuronidation (G1, G2) in human liver microsomes; type: biochemical
Excerpt: Compounds were eluted using a binary solvent gradient system. […] Solvent B was methanol. […] Detection was at 280 nm.

[2] = test system: T1, UGT enzymes of human liver microsomes; test: Inhibition of 7-HFC glucuronidation in human liver microsomes; type: biochemical; conditions: for % of control metabolism (SD, n = 3), 7-HFC glucuronidation: human liver microsomes 100 μg/ml
T1 construct: percentage of control metabolism, 7-HFC glucuronidation; percentage of control metabolism, 7-HFC glucuronidation

[3] = inhibitor 500 μM, 7-HFC 50 μM, 15 min
[4] = inhibitor 100 μM, 7-HFC 50 μM, 15 min
[5] = inhibitor 200 μM, 7-HFC 50 μM, 15 min
[6] = G1, inhibitor 500 μM, raloxifene 50 μM, human liver microsomes 250 μg/ml, 15 min
[7] = G2, inhibitor 500 μM, raloxifene 50 μM, human liver microsomes 250 μg/ml, 15 min

O=[N+]([O-])c1ccc(O)cc1 [p-Nitrophenol, reference compound]
% of control metabolism, raloxifene G1 [1]: 37 (0), 42 (2) % and 49 (2), 51 (2) % and 63 (4), 66 (1) % | % of control metabolism, raloxifene G2 [1]: 37 (0), 42 (2) % and 49 (2), 51 (2) % and 63 (4), 66 (1) % | % of control metabolism (SD, n = 3), 7-HFC glucuronidation [2, 3]: 62 (1) %

CC1=CC(=O)c2ccccc2C1=O [Vitamin K3]
% of control metabolism (SD, n = 3), 7-HFC glucuronidation [2, 3]: 78 (2) %

CCCCNC(=O)NS(=O)(=O)c1ccc(C)cc1 [Tolbutamide]
% of control metabolism (SD, n = 3), raloxifene glucuronide G1 [1]: 98 (7) % | % of control metabolism (SD, n = 3), raloxifene glucuronide G2 [1]: 91 (2) % | % of control metabolism (SD, n = 3), 7-HFC glucuronidation [2, 3]: 100 (0) %

CC(=O)OC/C=C(C)/C=C/C=C(C)/C=C/C1=C(C)CCCC1(C)C [Retinyl acetate]
% of control metabolism (SD, n = 3), 7-HFC glucuronidation [2, 4]: 72 (1) % | % of control metabolism (SD, n = 3), 7-HFC glucuronidation [2, 5]: 60 (3) % | % of control metabolism (SD, n = 3), 7-HFC glucuronidation [2, 3]: 48 (1) %

CCCCCCCCCCCCCCCC(=O)OC[C@H](O)[C@H]1OC(=O)C(O)=C1O [Ascorbyl palmitate]
% of control metabolism (SD, n = 3), raloxifene glucuronide G1 ([1]; G1, inhibitor 100 μM, raloxifene 50 μM, human liver microsomes 250 μg/ml, 15 min): 57 (2) % | % of control metabolism (SD, n = 3), raloxifene glucuronide G1 [1, 6]: 26 (1) % | % of control metabolism (SD, n = 3), raloxifene glucuronide G2 ([1]; G2, inhibitor 100 μM, raloxifene 50 μM, human liver microsomes 250 μg/ml, 15 min): 71 (4) % | % of control metabolism (SD, n = 3), raloxifene glucuronide G2 [1, 7]: 36 (5) % | IC50 ([2]; 7-HFC 50 μM, 1 mM UDPGA, 15 min): 200 µM | percentage of control metabolism, 7-HFC glucuronidation ([2]; inhibitor 100 μM): 64 (1) % | % of control metabolism (SD, n = 3), 7-HFC glucuronidation [2, 4]: 64 (1) % | percentage of control metabolism, 7-HFC glucuronidation ([2]; inhibitor 200 μM): 51 (1) % | % of control metabolism (SD, n = 3), 7-HFC glucuronidation [2, 5]: 51 (1) % | percentage of control metabolism, 7-HFC glucuronidation ([2]; inhibitor 500 μM): 11 (3) % and 17 (0) % | % of control metabolism (SD, n = 3), 7-HFC glucuronidation [2, 3]: 11 (3), % and 17 (0) %

CCCCCCCCCCCCCCCC(=O)OCC [Ethyl palmitate]
% of control metabolism (SD, n = 3), 7-HFC glucuronidation [2, 3]: 89 (3) %

CCCCCCCCCCCCCCCC(=O)O [Palmitic acid]
% of control metabolism (SD, n = 3), 7-HFC glucuronidation [2, 3]: 104 (2) %

COc1cc(/C=C/CO)ccc1O [Coniferol]
% of control metabolism (SD, n = 3), 7-HFC glucuronidation [2, 3]: 87 (0) %

CCCCCCCCCCCCCCCC(=O)O[C@H]1CC[C@@]2(C)C(=CC[C@H]3[C@@H]4CC[C@H]([C@H](C)CCCC(C)C)[C@@]4(C)CC[C@@H]32)C1 [Cholesteryl palmitate]
% of control metabolism (SD, n = 3), 7-HFC glucuronidation [2, 3]: 100 (3) %

Cc1cn([C@H]2C[C@H](N=[N+]=[N-])[C@@H](CO[C@@H]3O[C@H](C(=O)O)[C@@H](O)[C@H](O)[C@H]3O)O2)c(=O)[nH]c1=O [AZT glucuronide]
% of control metabolism (SD, n = 3), 7-HFC glucuronidation [2, 3]: 103 (1) %

CCCCCCCCCCCCCCCC(=O)OC/C=C(C)/C=C/C=C(C)/C=C/C1=C(C)CCCC1(C)C [Retinol palmitate]
% of control metabolism (SD, n = 3), 7-HFC glucuronidation [2, 4]: 90 (3) % | % of control metabolism (SD, n = 3), 7-HFC glucuronidation [2, 5]: 82 (1) % | % of control metabolism (SD, n = 3), 7-HFC glucuronidation [2, 3]: 81 (4) %

OCC=Cc1ccccc1 [Cinnamyl alcohol]
% of control metabolism (SD, n = 3), 7-HFC glucuronidation [2, 3]: 87 (1) %

O=C1O[C@H]([C@@H](O)CO)C(O)=C1O [Ascorbic acid]
% of control metabolism (SD, n = 3), 7-HFC glucuronidation [2, 3]: 99 (1) %

CCCCCCCCCCCCCCCCCC(=O)OC[C@H](O)[C@H]1OC(=O)C(O)=C1O [Ascorbyl stearate]
% of control metabolism (SD, n = 3), 7-HFC glucuronidation [2, 3]: 73 (2) %

C[C@]12CC[C@@H]3c4ccc(O)cc4CC[C@H]3[C@@H]1C[C@@H](O)[C@@H]2O [Estriol]
% of control metabolism (SD, n = 3), raloxifene glucuronide G1 [1, 6]: 46 (3) % | % of control metabolism (SD, n = 3), raloxifene glucuronide G2 [1, 7]: 60 (3) % | % of control metabolism (SD, n = 3), 7-HFC glucuronidation [2, 3]: 84 (2) %

C=CC[C@@H]1/C=C(\C)C[C@H](C)C[C@H](OC)[C@H]2O[C@@](O)(C(=O)C(=O)N3CCCC[C@H]3C(=O)O[C@H](/C(C)=C/[C@@H]3CC[C@@H](O)[C@H](OC)C3)[C@H](C)[C@@H](O)CC1=O)[C@H](C)C[C@@H]2OC [Tacrolimus]
% of control metabolism (SD, n = 3), 7-HFC glucuronidation [2, 3]: 126 (4) %

COc1ccc2cc([C@H](C)C(=O)[O-])ccc2c1.[Na+] [Naproxen Na salt]
% of control metabolism (SD, n = 3), 7-HFC glucuronidation [2, 3]: 82 (1) %
